Source: patent US20080312209A1, “Piperazine Heteroaryl Derivatives as Gpr38 Agonists” (Glaxo Group Limited, priority 2005, published 2008)

Experiments:
hGPR38R [1] = biological target: T1, hGPR38R (Homo sapiens, UniProt O43193); assay: GPR38 GTPγS functional agonist assay; format: biochemical; parameters: expressed in transfected cells; host or cells: HEK293 (transient transfection; P2 membrane fractions)
Experimental: The potencies and intrinsic activities of the compounds of this invention can also be determined according to the [35S]GTPγS functional assay which is described herein. It has been found, using the [35S]GTPγS functional assay, that compounds of formula (I) appear to be partial or full agonists of the GPR38 receptor.
GPR38GTPγS Functional Agonist Assay Protocol
For each compound being assayed, in an Opti clear bottom 96 well plate, is added:—
(a) 20 μl of test compound (or 10 μl of guanosine 5′-triphosphate (GTP) as non-specific binding control) diluted to required concentration in assay buffer (20 mM N-2-Hydroxyethylpiperazine-N′-2-ethanesulfonic acid (HEPES)+100 mM NaCl+10 mM MgCl2, pH adjusted to 7.4 with NaOH); (b) 60 μl bead/membrane/GDP mix prepared by suspending wheat germ agglutinin-polyvinyltoluene (WGA-PVT) scintillation proximity assay (SPA) beads at 100 mg/ml in assay buffer followed by mixing with membrane (prepared in accordance with the methodology described above) and diluting in assay buffer to give a final volume of 60 μl which contains 10 μg protein and 0.5 mg bead per well—mixture is pre-mixed at 4° C. for 30 min on a roller and just prior to addition to the plate, 10 μM final concentration of guanosine 5′ diphosphate (GDP—diluted in assay buffer) is added; (c) 20 μl guanosine 5′ [γ35-S]thiotriphosphate, triethylamine salt (Amersham; radioactivity concentration=37 kBq/μl or 1 mCi/ml; Specific Activity 1160 Ci/mmol) diluted to 1.9 nM in assay buffer to give 0.38 nM final.
The plate is incubated on a shaker at 25° C. for 30 min followed by centrifugation for 5 min at 1500 rpm. The plate is read between 3 and 6 h after completion of centrifuge run in a Wallac Microbeta counter on a 1 min normalised tritium count protocol. Data is analysed using a 4-parameter logistic equation. Basal activity used as minimum.
(§1) The following alternative procedure may also be used:
Membranes are derived from bulk cell cultures of HEK293 cell lines transiently transfected with hGPR38R and Go G-protein. P2 membranes fractions are prepared, aliquoted and stored at −80° C.
For each compound being assayed, the following is added into a white Greiner 384 well plate:—
(a) 1 μl of test compound diluted to required concentration in DMSO. (b) 20 μl bead/membrane/Saponin/GDP mix prepared as follows;—suspension of LEADseeker wheat germ agglutinin (WGA) scintillation proximity assay (SPA) beads at 25 mg/ml in assay buffer (20 mM N-2-Hydroxyethylpiperazine-N′-2-ethanesulfonic acid (HEPES)+100 mM NaCl+10 mM MgCl2, pH adjusted to 7.4 with KOH) containing saponin at 150 ug/ml. Mixing of bead suspension with membranes at 500 ug/ml (prepared in accordance with the methodology described above) and diluting in assay buffer to give a final volume of 20 μl which contains 5 μg protein and 0.25 mg bead per well.
Mixture is pre-mixed for 30 minutes on a roller and just prior to addition to the plate, 3 μM final assay concentration of guanosine 5′ diphosphate (GDP) (diluted in assay buffer) is added.
(c) 25 μl guanosine 5′ [γ35-S]thiotriphosphate, triethylamine salt (Amersham; radioactivity concentration=37 kBq/μl or 1 mCi/ml; Specific Activity 1160 Ci/mmol) diluted to 0.6 nM in assay buffer to give 0.33 nM final assay concentration.
The plate is then spun for 2 minutes at 1500 rpm and then incubated at room temperature for 4 hours. The plate is then read on a Viewlux Plux (Perkin Elmer). Data is analysed using a 4-parameter logistic equation.
Target sequence in this assay (O43193 whole entry): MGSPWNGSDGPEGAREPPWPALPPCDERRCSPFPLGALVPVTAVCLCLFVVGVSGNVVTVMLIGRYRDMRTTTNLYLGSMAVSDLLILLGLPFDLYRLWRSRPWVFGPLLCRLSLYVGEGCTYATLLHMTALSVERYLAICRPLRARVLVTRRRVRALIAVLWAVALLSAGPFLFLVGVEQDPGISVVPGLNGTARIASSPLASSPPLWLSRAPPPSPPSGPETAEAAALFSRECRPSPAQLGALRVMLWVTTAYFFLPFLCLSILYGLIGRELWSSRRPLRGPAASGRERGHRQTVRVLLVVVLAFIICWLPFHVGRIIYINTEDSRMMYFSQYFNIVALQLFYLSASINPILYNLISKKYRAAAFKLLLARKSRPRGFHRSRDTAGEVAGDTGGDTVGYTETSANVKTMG
Target sequence in this assay (P09471 2-354 partner limits assumed): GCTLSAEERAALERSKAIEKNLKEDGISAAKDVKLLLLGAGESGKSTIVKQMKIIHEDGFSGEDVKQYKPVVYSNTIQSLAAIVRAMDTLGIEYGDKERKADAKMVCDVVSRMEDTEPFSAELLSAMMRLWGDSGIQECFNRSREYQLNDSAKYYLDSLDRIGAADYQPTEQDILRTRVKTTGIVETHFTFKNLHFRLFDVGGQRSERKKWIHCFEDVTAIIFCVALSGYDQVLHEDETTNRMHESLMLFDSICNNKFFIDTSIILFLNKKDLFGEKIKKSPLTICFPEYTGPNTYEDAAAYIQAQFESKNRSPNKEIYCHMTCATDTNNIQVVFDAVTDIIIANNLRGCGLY
Target sequence in this assay (P62873 2-340 partner limits assumed): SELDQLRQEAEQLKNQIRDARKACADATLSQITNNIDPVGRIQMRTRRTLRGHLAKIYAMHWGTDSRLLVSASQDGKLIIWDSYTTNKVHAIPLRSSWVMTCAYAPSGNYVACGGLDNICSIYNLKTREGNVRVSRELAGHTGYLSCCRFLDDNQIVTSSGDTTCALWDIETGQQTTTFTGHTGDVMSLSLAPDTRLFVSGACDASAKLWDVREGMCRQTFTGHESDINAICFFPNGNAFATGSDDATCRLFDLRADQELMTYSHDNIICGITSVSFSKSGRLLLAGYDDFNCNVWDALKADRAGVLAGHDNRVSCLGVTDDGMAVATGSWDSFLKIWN
Target sequence in this assay (P59768 2-68 partner limits assumed): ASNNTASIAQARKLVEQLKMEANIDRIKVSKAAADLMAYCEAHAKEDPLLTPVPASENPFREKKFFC

hGPR38R [2] = biological target: T1, hGPR38R; assay: GPR38 FLIPR functional agonist assay; format: cell-based; parameters: expressed in transfected cells; details: HEK-293 cells stably expressing the GPR38 receptor, agonist response, Fluo-4 fluorescence
Experimental: The potencies and efficacies of the compounds of this invention for GPR^38 can be determined by FLIPR assay performed on the human cloned receptor as described herein. It has been found, using the FLIPR functional assay, that compounds of formula (I) appear to be partial or full agonists of the GPR38 receptor.
GPR38FLIPR Functional Agonist Assay Protocol
HEK-293 cells stably expressing the GPR38 receptor were seeded (10,000 cells/well) into poly-D-lysine coated 384-well black-wall, clear-bottom microtitre plates (Becton Dickinson) 24 h prior to assay. On day of assay, cells were washed (×2) with 80 ul of assay buffer (Hanks Balanced Salts Solution (HBSS), 10 mM HEPES, 200 μM Ca^2+, 2.5 mM probenecid) using the EMBLA cell washer. After the final wash, buffer was aspirated to leave a residual volume of 30 ul on the cells. Cells were loaded with 1 μM (final) Fluo-4-AM fluorescent indicator dye (TefLabs) in assay buffer, (20 ul loading solution added to each well using the Multidrop). Plates were incubated for 1 h at 37° C., before being washed (×3) with 80 ul assay buffer using the EMBLA cell washer; 30 ul residual being left after the final wash. Plates were then assayed on a Fluorometric Imaging Plate Reader (FLIPR, Molecular Devices). Test compounds were prepared in assay buffer without probenecid, but containing 0.03% CHAPS. In the FLIPR, 10 ul of test compound was added to the cells and changes in fluorescence measured over a 2 min timeframe. Maximum change in fluorescence over baseline was used to determine agonist response and concentration response curves were constructed, using a 4-parameter logistic equation.
as §1
Target sequence in this assay (O43193 whole entry): as the sequence (O43193 whole entry) above
HEK-293 cells stably expressing the GPR38 receptor were seeded (30,000 cells/100 ul growth media/well) into poly-D-lysine coated 96-well black-wall, clear-bottom microtitre plates (Corning) 24 hours prior to assay. On the day of assay the cells were loaded with 2 μM (final) Fluo-4-AM fluorescent indicator dye (Molecular Probes) and 1 mM (final) probenicid in assay buffer (145 mM sodium chloride, 2.5 mM potassium chloride, 10 mM Hepes, 10 mM glucose, 1.2 mM magnesium chloride, 1.5 mM calcium chloride and 0.1% BSA) (50 ul loading solution added to each well). Plates were incubated for 1 hour at 25° C., before being washed 4 times with 100 ul assay buffer using the EMBLA cell washer; 150 ul residual being left after the final wash. The cells were then incubated at 25° C. for 20 minutes and the plates were then assayed on a Fluorometric Imaging Plate Reader (FLIPR, Molecular Devices). Test compounds were prepared in assay buffer without probenecid. In the FLIPR, 50 ul of test compound was added to the cells and changes in fluorescence measured over a 2 minute timeframe. Maximum change in fluorescence over baseline was used to determine agonist response and concentration response curves were constructed, using a 4-parameter logistic equation.

[3] = read-out: pEC50 in the FLIPR assay (converted)
[4] = [35S]GTPγS SPA, HEK293 membranes with hGPR38R and Go G-protein, read-out: pEC50 in the GTPγS assay (converted)

| Structure (SMILES) | EC50 (hGPR38R [1]) [µM] | EC50 (hGPR38R [2]; pEC50 in the FLIPR assay) [µM] | EC50 (hGPR38R [2]; [3]) [µM] | EC50 (hGPR38R [1]; [4]) [µM] |
| --- | --- | --- | --- | --- |
| C[C@@H]1CN(Cc2ccc(-c3cccnc3C(=O)N3CCC(Nc4cc(F)cc(F)c4)CC3)cc2F)C[C@H](C)N1 [Example 27, N-(3,5-difluorophenyl)-1-{[3-(4-{[(3R,5S)-3,5-dimethyl-1-piperazinyl]methyl}-3-fluorophenyl)-2-pyridinyl]carbonyl}-4-piperidinamine] | < 3.16 | – | – | – |
| C[C@H]1CN(Cc2ccc(-c3cccnc3C(=O)N3CCC(Nc4cccc(F)c4)CC3)cc2)CCN1 [Example 14, N-(3-fluorophenyl)-1-{[3-(4-{[(3S)-3-methyl-1-piperazinyl]methyl}phenyl)-2-pyridinyl]carbonyl}-4-piperidinamine] | < 3.16 | < 0.316 | – | – |
| C[C@@H]1CN(Cc2ccc(-n3ccnc3C(=O)N3CCC(Nc4cccc(F)c4)CC3)cc2)C[C@H](C)N1 [Example 21, 1-{[1-(4-{[(3R,5S)-3,5-Dimethyl-1-piperazinyl]methyl}phenyl)-1H-imidazol-2-yl]carbonyl}-N-(3-fluorophenyl)-4-piperidinamine] | < 3.16 | < 0.316 | – | – |
| COc1cc(NC2CCN(C(=O)c3ncccc3-c3ccc(CN4C[C@@H](C)N[C@@H](C)C4)c(F)c3)CC2)ccc1F [Example 28, 1-{[3-(4-{[(3R,5S)-3,5-dimethyl-1-piperazinyl]methyl}-3-fluorophenyl)-2-pyridinyl]carbonyl}-N-[4-fluoro-3-(methyloxy)phenyl]-4-piperidinamine] | – | – | < 0.316 | < 3.16 |
| Cc1nc(CN(C)C(=O)COc2ccc(F)cc2)c(-c2ccc(CN3C[C@@H](C)N[C@@H](C)C3)cc2)s1 [Example 7, N-{[5-(4-{[(3R,5S)-3,5-dimethyl-1-piperazinyl]methyl}phenyl)-2-methyl-1,3-thiazol-4-yl]methyl}-2-[(4-fluorophenyl)oxy]-N-methylacetamide] | – | – | – | < 3.16 |
| C[C@@H]1CN(Cc2ccc(-c3cccnc3C(=O)N3CCC(Nc4cccc(C#N)c4)CC3)cc2F)C[C@H](C)N1 [Example 30, 3-[(1-{[3-(4-{[(3R,5S)-3,5-dimethyl-1-piperazinyl]methyl}-3-fluorophenyl)-2-pyridinyl]car-bonyl}-4-piperidinyl)amino]benzonitrile] | – | – | – | < 3.16 |
| C[C@@H]1CN(Cc2ccc(-c3cccnc3C(=O)N3CCC(Sc4ccc(Cl)cc4)CC3)cc2F)C[C@H](C)N1 [Example 13, (3R,5S)-1-({4-[2-({4-[(4-chlorophenyl)thio]-1-piperidinyl}carbonyl)-3-pyridinyl]-2-fluorophenyl}methyl)-3,5-dimethylpiperazine] | – | – | < 0.316 | < 3.16 |
| C[C@@H]1CN(Cc2ccc(-n3ccnc3C(=O)N3CCC(Nc4ccc(F)cc4)CC3)cc2F)C[C@H](C)N1 [Example 24, 1-{[1-(4-{[(3R,5S)-3,5-dimethyl-1-piperazinyl]methyl}-3-fluorophenyl)-1H-imidazol-2-yl]carbonyl}-N-(4-fluorophenyl)-4-piperidinamine] | < 3.16 | – | – | – |
| C[C@@H]1CN(Cc2ccc(-c3cccnc3C(=O)N3CCC(Nc4cccc(F)c4)C3)cc2)C[C@H](C)N1 (stereo partly drawn) [Example 33, 1-{[3-(4-{[(3R,5S)-3,5-dimethyl-1-piperazinyl]methyl}phenyl)-2-pyridinyl]carbonyl}-N-(3-fluorophenyl)-3-pyrrolidinamine] | – | – | < 0.316 | < 3.16 |
| C[C@@H]1CN(Cc2ccc(-c3cccnc3C(=O)N3CCC(Cc4ccc(F)cc4)CC3)cc2)C[C@H](C)N1 [Example 1, (3R,5S)-3,5-Dimethyl-1-({4-[2-({4-[(4-Fluorophenyl)methyl]piperidin-1-yl}carbonyl)pyridin-3-yl]phenyl}methyl)piperazine] | – | – | < 0.316 | < 3.16 |
| C[C@H]1CN(Cc2ccc(-c3cccnc3C(=O)N3CCC(Nc4ccc(F)cc4)CC3)cc2)CCN1 [Example 8, N-(4-Fluorophenyl)-1-{[3-(4-{[(3S)-3-methyl-1-piperazinyl]methyl}phenyl)-2-pyridinyl]carbonyl}-4-piperidinamine] | < 3.16 | < 0.316 | – | – |
| C[C@@H]1CN(Cc2ccc(-n3ccnc3C(=O)N3CCC(Nc4ccccc4F)CC3)cc2)C[C@H](C)N1 [Example 23, 1-{[1-(4-{[(3R,5S)-3,5-dimethyl-1-piperazinyl]methyl}phenyl)-1H-imidazol-2-yl]carbonyl}-N-(2-fluorophenyl)-4-piperidinamine] | < 3.16 | – | – | – |
| C[C@@H]1CN(Cc2ccc(-n3ccnc3C(=O)N3CCC(Nc4cccc(F)c4)CC3)cc2F)C[C@H](C)N1 [Example 25, 1-{[1-(4-{[(3R,5S)-3,5-dimethyl-1-piperazinyl]methyl}-3-fluorophenyl)-1H-imidazol-2-yl]carbonyl}-N-(3-fluorophenyl)-4-piperidinamine] | < 3.16 | – | – | – |
| C[C@@H]1CN(Cc2ccc(-c3cccnc3C(=O)N3CCC(Oc4cccc(F)c4)CC3)cc2F)C[C@H](C)N1 [Example 35, (3R,5S)-1-({2-fluoro-4-[2-({4-[(3-fluorophenyl)oxy]-1-piperidinyl}carbonyl)-3-pyridinyl]phenyl}methyl)-3,5-dimethylpiperazine] | – | – | < 0.316 | – |
| Cc1nc(C(=O)N2CCC(Nc3ccc(F)cc3)CC2)c(-c2ccc(CN3C[C@@H](C)N[C@@H](C)C3)cc2)s1 [Example 5] | < 3.16 | – | – | – |
| Cc1nc(C(=O)N2CCC(Cc3ccc(F)cc3)CC2)c(-c2ccc(CN3C[C@@H](C)N[C@@H](C)C3)cc2)s1 [Example 4, (3R,5S)-3,5-Dimethyl-1-({4-[4-({4-[(4-fluorophenyl)methyl]piperidin-1-yl}carbonyl)-2-methyl-1,3-thiazol-5-yl]phenyl}methyl)piperazine] | – | – | – | < 3.16 |
